Measured values published in patent US9701689B2, “Substituted pyridines and pyridazines as CCR10 receptor inhibitors” (KYOWA HAKKO KIRIN CO., LTD., priority 2012, dated 2017).

target: T1, human CCR10 (Homo sapiens, UniProt P46092); experiment: CCR10 antagonistic effect: calcium assay of human CCR10 (CTACK-induced increase of intracellular calcium in hCCR10G16 cells); assay type: cell-based; conditions: at a concentration of not more than 1000 nmol/L; human CCR10-expressing hCCR10G16 cells, 300 nmol/L CTACK added; read-out: inhibition of increase in the calcium ion concentration
T1 construct: expressed in transfected cells; host or cells: KJMGER8 cells (Namalwa cell-derived line), beta-estradiol-induced; hCCR10G16 cells
T1 sequence (P46092 1-362): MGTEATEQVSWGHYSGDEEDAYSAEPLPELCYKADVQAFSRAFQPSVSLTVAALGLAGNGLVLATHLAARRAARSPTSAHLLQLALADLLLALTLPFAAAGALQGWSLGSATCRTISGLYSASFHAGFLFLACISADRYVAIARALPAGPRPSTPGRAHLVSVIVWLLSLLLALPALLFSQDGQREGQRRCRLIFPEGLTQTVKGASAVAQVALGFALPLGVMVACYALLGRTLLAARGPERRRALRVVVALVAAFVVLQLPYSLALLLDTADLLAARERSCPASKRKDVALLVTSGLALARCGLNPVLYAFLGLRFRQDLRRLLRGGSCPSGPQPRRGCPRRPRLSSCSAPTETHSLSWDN
Description: [Experimental Example 1] CCR10 Antagonistic Effect
(1) Preparation of Human CCR10-Inducible Expression Plasmid
A CCR10-inducible expression plasmid was prepared according to a known method [Analytical Biochemistry, 2006, vol. 400, page 163]. A DNA encoding human CCR10 was obtained by PCR. Using human chromosome DNA (100 ng; manufactured by Clontech) as a template, synthetic DNA having the sequences depicted in SEQ ID NOs: 1 and 2 as a human CCR10 cDNA specific primer, and Pyrobest DNA Polymerase (manufactured by TAKARA SHUZO CO. LTD.) as an enzyme, a DNA encoding human CCR10 was obtained by PCR. As a buffer for PCR, the buffer attached to the enzyme to be used, which was diluted 10-fold with deionized water, was used. Using Thermal Cycler DNA Engine (manufactured by MJ Research), PCR was performed by 35 cycles of reactions composed of an incubation at 94° C. for 30 sec, at an anneal temperature of 58° C. for 30 sec, and at 72° C. for 1 min after treating at 90° C. for 2 min.
The amplified PCR fragment was cleaved with HindIII and NotI, then a human CCR10 DNA fragment was recovered by the agarose gel electrophoresis method. The fragment was incorporated between the corresponding restriction enzyme sites (HindIII-NotI) of an inducible expression vector to construct a human CCR10-inducible expression plasmid.
Using a primer specific to the sequence of plasmid (synthetic DNA having the sequences shown in SEQ ID NOs: 3 and 4), the sequence of human CCR10 DNA region was determined. For the determination of the base sequence, DNA Sequencer 377 (manufactured by Perkin Elmer. Co.) and a reaction kit (ABI Prism (registered trade mark) BigDye (registered trade mark) Terminator Cycle Sequencing Ready Reaction kit: manufactured by Applied Biosystems) were used. The sequence of human CCR10 DNA was identical with the sequence (NM 016602) registered in GenBank.
(2) Preparation of Human CCR10 Expressing Cell for Calcium Assay
Cells for detecting signals from human CCR10 in calcium assay were prepared. According to a known method [Analytical.Biochemistry (Analy Biochem), 2006, vol. 400, page 163], human CCR10-inducible expressing cells whose host cell is KJMGER8 cell (Namalwa cell-derived cell line) were prepared. Human CCR10-inducible expression plasmid produced above and Gα16 expression plasmid were co-transfected into the KJMGER8 cells by the electroporation method [Cytotechnology, 1990, vol. 3, page 133], whereby the signals from human CCR10 could be detected by calcium assay (hereinafter to be referred to as hCCR10G16 cell). A Ga16 expression plasmid was produced by incorporating human Ga16 DNA into expression vector pAMoh (WO 03/087366). Expression of human CCR10 was induced by cultivating hCCR10G16 cells in the presence of 10 nmol/L β-estradiol (manufactured by Sigma Ltd.) for 24 hr.
(3) Calcium Assay of Human CCR10
Cells expressing human CCR10 induced by the above-mentioned method were suspended in RPMI1640 medium (manufactured by Invitrogen), and adjusted to a cell density of 2×10^6 cells/mL. The cells were blended with an equivalent volume of a loading buffer prepared according to the attached protocol of Fluo-3 calcium assay kit (manufactured by Molecular Devices Corporation), and incubated at 37° C. for several dozen minutes. This mixture was dispensed to a 384 well clear-bottom plate (manufactured by Corning Incorporated) at 40 μL/well. To this plate was added a solution of the test compound in dimethyl sulfoxide (DMSO), which was diluted 37-fold with RPMI1640 medium, at 5 μL/well, and the mixture was incubated at 37° C. for 30 min. 300 nmol/L human recombinant CTACK (manufactured by R&D Systems, Inc.) diluted with RPMI1640 medium containing 1 w/v % bovine serum albumin (manufactured by Sigma Ltd.) was added at 5 μL/well and, variation of intracellular calcium ion concentration for about 5 min after the addition was measured by a screening apparatus (FDSS; manufactured by Hamamatsu Photonics K.K.). […]

inhibition at up to 1 µM | Compound
≥ 50% | NS(=O)(=O)c1ncc(C(=O)N2CCC(c3ccc(F)cc3)CC2)c(Nc2ccc(F)cc2F)c1Cl [Compound 27, 3-chloro-4-(2,4-difluorophenylamino)-5-[4-(4-fluorophenyl)piperidine-1-carbonyl]pyridine-2-sulfonamide]
≥ 50% | NS(=O)(=O)c1ncc(C(=O)N2CCC(c3ccc(F)cc3)CC2)c(Nc2ccc(Cl)cc2F)c1Cl [Compound 28, 3-chloro-4-(4-chloro-2-fluorophenylamino)-5-[4-(4-fluorophenyl)piperidine-1-carbonyl]pyridine-2-sulfonamide]
≥ 50% | COc1ccc(Nc2c(C(=O)N3CCC(c4ccc(F)cc4)CC3)cnc(S(N)(=O)=O)c2Cl)cc1 [Compound 29, 3-chloro-5-[4-(4-fluorophenyl)piperidine-1-carbonyl]-4-(4-methoxyphenylamino)pyridine-2-sulfonamide]
≥ 50% | COc1ccc(Nc2c(C(=O)N3CCC(c4ccc(F)cc4)CC3)cnc(S(N)(=O)=O)c2Cl)c(F)c1 [Compound 30, 3-chloro-4-(2-fluoro-4-methoxyphenylamino)-5-[4-(4-fluorophenyl)piperidine-1-carbonyl]pyridine-2-sulfonamide]
≥ 50% | Cc1cc(Nc2c(C(=O)N3CCC(c4ccc(F)cc4)CC3)cnc(S(N)(=O)=O)c2Cl)ccc1F [Compound 31, 3-chloro-4-(4-fluoro-3-methylphenylamino)-5-[4-(4-fluorophenyl)piperidine-1-carbonyl]pyridine-2-sulfonamide]
≥ 50% | COc1ccc(Nc2c(C(=O)N3CCC(c4ccc(F)cc4)CC3)cnc(S(N)(=O)=O)c2Cl)cc1F [Compound 32, 3-chloro-4-(3-fluoro-4-methoxyphenylamino)-5-[4-(4-fluorophenyl)piperidine-1-carbonyl]pyridine-2-sulfonamide]
≥ 50% | Cc1ccccc1Nc1c(C(=O)N2CCC(c3ccc(F)cc3)CC2)cnc(S(N)(=O)=O)c1Cl [Compound 33, 3-chloro-5-[4-(4-fluorophenyl)piperidine-1-carbonyl]-4-(o-tolylamino)pyridine-2-sulfonamide]
≥ 50% | NS(=O)(=O)c1ncc(C(=O)N2CCC(c3ccc(F)cc3)CC2)c(Nc2cc(F)c(F)cc2F)c1Cl [Compound 34, 3-chloro-5-[4-(4-fluorophenyl)piperidine-1-carbonyl]-4-(2,4,5-trifluorophenylamino)pyridine-2-sulfonamide]
≥ 50% | CNC(=O)C1COCCN1S(=O)(=O)c1ncc(C(=O)N2CCC(c3ccc(F)cc3)CC2)c(Nc2ccc(F)cc2C)c1Cl (stereo not drawn) [Compound 35, 4-{3-chloro-4-(4-fluoro-2-methylphenylamino)-5-[4-(4-fluorophenyl)piperidine-1-carbonyl]pyridin-2-ylsulfonyl}-N-methylmorpholine-3-carboxamide]
≥ 50% | COc1ccc(NS(=O)(=O)c2ncc(C(=O)N3CCC(c4ccc(F)cc4)CC3)c(Nc3ccc(F)cc3C)c2Cl)cc1 [Compound 38, 3-chloro-4-(4-fluoro-2-methylphenylamino)-5-[4-(4-fluorophenyl)piperidine-1-carbonyl]-N-(4-methoxyphenyl)pyridine-2-sulfonamide]
≥ 50% | Cc1cc(F)ccc1Nc1c(C(=O)N2CCC(c3ccc(F)cc3)CC2)cnc(S(=O)(=O)Nc2ccn(C)n2)c1Cl [Compound 39, 3-chloro-4-(4-fluoro-2-methylphenylamino)-5-[4-(4-fluorophenyl)piperidine-1-carbonyl]-N-(1-methyl-1H-pyrazol-3-yl)pyridine-2-sulfonamide]
≥ 50% | Cc1cc(NS(=O)(=O)c2ncc(C(=O)N3CCC(c4ccc(F)cc4)CC3)c(Nc3ccc(F)cc3C)c2Cl)no1 [Compound 40, 3-chloro-4-(4-fluoro-2-methylphenylamino)-5-[4-(4-fluorophenyl)piperidine-1-carbonyl]-N-(5-methylisoxazol-3-yl)pyridine-2-sulfonamide]
≥ 50% | Cc1cc(NS(=O)(=O)c2ncc(C(=O)N3CCC(c4ccc(F)cc4)CC3)c(Nc3ccc(F)cc3C)c2Cl)on1 [Compound 41, 3-chloro-4-(4-fluoro-2-methylphenylamino)-5-[4-(4-fluorophenyl)piperidine-1-carbonyl]-N-(3-methylisoxazol-5-yl)pyridine-2-sulfonamide]
≥ 50% | Cc1cc(F)ccc1Nc1c(C(=O)N2CCC(c3ccc(F)cc3)CC2)cnc(S(=O)(=O)Nc2cc(C(C)(C)C)on2)c1Cl [Compound 42, N-(5-tert-butylisoxazol-3-yl)-3-chloro-4-(4-fluoro-2-methylphenylamino)-5-[4-(4-fluorophenyl)piperidine-1-carbonyl]pyridine-2-sulfonamide]
≥ 50% | CCNC(=O)NS(=O)(=O)c1ncc(C(=O)N2CCC(c3ccc(F)cc3)CC2)c(Nc2ccc(F)cc2C)c1Cl [Compound 43, 3-chloro-N-(ethylcarbamoyl)-4-(4-fluoro-2-methylphenylamino)-5-[4-(4-fluorophenyl)piperidine-1-carbonyl]pyridine-2-sulfonamide]
≥ 50% | NS(=O)(=O)c1ncc(C(=O)N2CCC(c3ccc(F)cc3)CC2)c(NCc2ccccc2)c1Cl [Compound 44, 4-(benzylamino)-3-chloro-5-[4-(4-fluorophenyl)piperidine-1-carbonyl]pyridine-2-sulfonamide]
≥ 50% | NS(=O)(=O)c1ncc(C(=O)N2CCC(c3ccc(F)cc3)CC2)c(NC2CCCCC2)c1Cl [Compound 45, 3-chloro-4-(cyclohexylamino)-5-[4-(4-fluorophenyl)piperidine-1-carbonyl]pyridine-2-sulfonamide]
≥ 50% | Cc1cc(Cl)ccc1Nc1cc(S(N)(=O)=O)ncc1C(=O)N1CCC2(CC1)OCc1ccccc12 [Compound 46, 4-(4-chloro-2-methylphenylamino)-5-(3H-spiro[isobenzofuran-1,4′-piperidine]-1′-ylcarbonyl]pyridine-2-sulfonamide]
≥ 50% | Cc1cc(F)ccc1Nc1cc(S(N)(=O)=O)ncc1C(=O)N1CCC(c2ccccc2)CC1 [Compound 48, 4-(4-fluoro-2-methylphenylamino)-5-(4-phenylpiperidine-1-carbonyl)pyridine-2-sulfonamide]
≥ 50% | Cc1cc(Cl)ccc1Nc1cc(S(N)(=O)=O)ncc1C(=O)N1CCC(c2ccccc2)CC1 [Compound 49, 4-(4-chloro-2-methylphenylamino)-5-(4-phenylpiperidine-1-carbonyl)pyridine-2-sulfonamide]
≥ 50% | Cc1ccc(Cl)c(Nc2cc(S(N)(=O)=O)ncc2C(=O)N2CCC(c3ccc(F)cc3)CC2)c1 [Compound 50, 4-(2-chloro-5-methylphenylamino)-5-[4-(4-fluorophenyl)piperidine-1-carbonyl]pyridine-2-sulfonamide]
